{"source": "patent US20160175284A1", "about": "“ESTROGEN RECEPTOR MODULATORS AND USES THEREOF” (Genentech, Inc., priority 2014, published 2016)"}
{"biological_target": "T1, estrogen receptor alpha (ESR1) in MCF7 breast cancer cells (Homo sapiens, UniProt P03372)", "T1 construct": "endogenous in cells; host or cells: MCF7 breast cancer cells", "T1 sequence (P03372 1-595)": "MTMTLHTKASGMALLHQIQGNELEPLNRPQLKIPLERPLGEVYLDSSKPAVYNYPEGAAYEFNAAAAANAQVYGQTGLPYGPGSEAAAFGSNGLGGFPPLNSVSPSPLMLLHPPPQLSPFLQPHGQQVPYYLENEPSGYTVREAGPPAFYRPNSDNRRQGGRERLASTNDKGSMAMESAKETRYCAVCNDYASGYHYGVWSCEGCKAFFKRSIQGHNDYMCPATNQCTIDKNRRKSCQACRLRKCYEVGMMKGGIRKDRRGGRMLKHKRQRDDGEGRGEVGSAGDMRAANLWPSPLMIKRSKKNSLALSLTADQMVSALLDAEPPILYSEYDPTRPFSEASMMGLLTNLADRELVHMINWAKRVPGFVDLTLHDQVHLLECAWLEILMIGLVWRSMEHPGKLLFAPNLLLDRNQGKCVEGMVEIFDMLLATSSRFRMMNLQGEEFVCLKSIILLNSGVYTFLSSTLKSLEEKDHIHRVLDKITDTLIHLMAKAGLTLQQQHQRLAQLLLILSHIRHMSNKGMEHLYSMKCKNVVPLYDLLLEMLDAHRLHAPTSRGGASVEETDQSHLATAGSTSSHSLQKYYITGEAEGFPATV", "experiment": "Breast Cancer Cell ERa High Content Fluorescence Imaging Assay (F10)", "assay_type": "cell-based", "conditions": "4 hours, plateau of the maximal effect, DMSO and 5 nM Fulvestrant define 0% and 100% changes in ESR1", "description": "Breast Cancer Cell ERa High Content Fluorescence Imaging Assay (F10)\nCell plates were incubated at 37° C., for 4 hours. Fixation and permeabilization were carried out using a Biotek EL406 plate washer and dispenser as follows. […] Samples were incubated 30 minutes. Well contents was aspirated and 50 ul/well of Phosphate Buffered Saline (PBS) containing 0.5% w/v bovine serum albumen, 0.5% v/v Triton X-100 (Antibody Dilution Buffer) was added to each well. Samples were incubated for 30 minutes. Well contents were aspirated and washed 3 times with 100 ul/well of PBS. Immunofluorescence staining of estrogen receptor alpha (ESR1) was carried out using a Biotek EL406 plate washer and dispenser as follows. […] Samples were incubated for 2 hours at room temperature. Samples were washed 4 times with 100 ul/well of PBS. […] Samples were incubated for 2 hours at room temperature. Samples were washed 3 times with 100 ul/well of PBS using a Biotek EL406. Quantitative fluorescence imaging of ESR1 was carried out using a Cellomics Arrayscan V (Thermo). […] Channel 1 (DNA stain) was used to define the nuclear region (Circ). […] Data analysis was carried out using Genedata Screener Software, with DMSO and 5 nM Fulvestrant treated samples being used to define the 0% and 100% changes in ESR1. The “Robust Fit” method was used to define the inflexion point of curve (EC50) and the plateau of the maximal effect (Sinf).", "units": {"ER-alpha MCF7 HCS Sinf (%)": "%"}}
{"compound": "COc1cc(C2=C(C)c3cc(O)ccc3OC2c2ccc(OCCN3CC(CF)C3)cc2)ccc1O", "note": "(stereo not shown) [Example 46, 2-(4-(2-(3-(fluoromethyl)azetidin-1-yl)ethoxy)phenyl)-3-(4-hydroxy-3-methoxyphenyl)-4-methyl-2H-chromen-6-ol]", "ER-alpha MCF7 HCS Sinf (%)": "−98"}
{"compound": "C#Cc1cc(O)cc(C2=C(C)c3cc(O)ccc3OC2c2ccc(OC[C@H](C)N3CC[C@@H](CF)C3)cc2)c1", "note": "(stereo partly drawn) [Example 3, 3-(3-Ethynyl-5-hydroxyphenyl)-2-(4-((S)-2-((R)-3-(fluoromethyl)pyrrolidin-1-yl)propoxy)phenyl)-4-methyl-2H-chromen-6-ol]", "ER-alpha MCF7 HCS Sinf (%)": "−94"}
{"compound": "CC1=C(c2cccc(F)c2F)C(c2ccc(OCCN3CC(CF)C3)cc2)Oc2ccc(O)cc21", "note": "(stereo not shown) [Example 4, 3-(2,3-Difluorophenyl)-2-(4-(2-(3-(fluoromethyl)azetidin-1-yl)ethoxy)phenyl)-4-methyl-2H-chromen-6-ol]", "ER-alpha MCF7 HCS Sinf (%)": "−98"}
{"compound": "CC1=C(c2ccc(F)cc2Cl)[C@@H](c2ccc(OCCN3CC(CF)C3)cc2)Oc2ccc(O)cc21", "note": "[Example 40, (2R)-3-(2-chloro-4-fluoro-phenyl)-2-[4-[2-[3-(fluoromethyl)azetidin-1-yl]ethoxy]phenyl]-4-methyl-2H-chromen-6-ol]", "ER-alpha MCF7 HCS Sinf (%)": "−98"}
{"compound": "CC1=C(c2cccc(S(C)(=O)=O)c2)C(c2ccc(OCCN3CC(CF)C3)cc2)Oc2ccc(O)cc21", "note": "(stereo not shown) [Example 9, 2-(4-(2-(3-(Fluoromethyl)azetidin-1-yl)ethoxy)phenyl)-4-methyl-3-(3-(methylsulfonyl)phenyl)-2H-chromen-6-ol]", "ER-alpha MCF7 HCS Sinf (%)": "−99"}
{"compound": "CC1=C(c2cc(F)ccc2F)[C@@H](c2ccc(OCCN3CC(CF)C3)cc2)Oc2ccc(O)cc21", "note": "[Example 42, (2R)-3-(2,5-difluorophenyl)-2-[4-[2-[3-(fluoromethyl)azetidin-1-yl]ethoxy]phenyl]-4-methyl-2H-chromen-6-ol]", "ER-alpha MCF7 HCS Sinf (%)": "−94"}
{"compound": "CC1=C(c2ccc(C#N)c(Cl)c2)C(c2ccc(OCCN3CC(CF)C3)cc2)Oc2ccc(O)cc21", "note": "(stereo not shown) [Example 18, 2-Chloro-4-(2-(4-(2-(3-(fluoromethyl)azetidin-1-yl)ethoxy)phenyl)-6-hydroxy-4-methyl-2H-chromen-3-yl)benzonitrile]", "ER-alpha MCF7 HCS Sinf (%)": "−99"}
{"compound": "CC1=C(c2ccc(S(C)(=O)=O)cc2)C(c2ccc(OCCN3CC(CF)C3)cc2)Oc2ccc(O)cc21", "note": "(stereo not shown) [Example 8, 2-(4-(2-(3-(fluoromethyl)azetidin-1-yl)ethoxy)phenyl)-4-methyl-3-(4-(methylsulfonyl)phenyl)-2H-chromen-6-ol]", "ER-alpha MCF7 HCS Sinf (%)": "−90"}
{"compound": "CC1=C(c2ccc(F)cc2)C(c2ccc(OCCN3CC(CF)C3)cc2)Oc2cc(C)c(O)cc21", "note": "(stereo not shown) [Example 29, 2-{4-[2-(3-Fluoromethyl-azetidin-1-yl)-ethoxy]-phenyl}-3-(4-fluoro-phenyl)-4,7-dimethyl-2H-chromen-6-ol]", "ER-alpha MCF7 HCS Sinf (%)": "−90"}
{"compound": "CC1=C(c2ccc(Cl)c(F)c2)C(c2ccc(OC[C@H](C)N3CC[C@@H](CF)C3)cc2)Oc2ccc(O)cc21", "note": "(stereo partly drawn) [Example 1, 3-(4-Chloro-3-fluorophenyl)-2-(4-((S)-2-((R)-3-(fluoromethyl)pyrrolidin-1-yl)propoxy)phenyl)-4-methyl-2H-chromen-6-ol]", "ER-alpha MCF7 HCS Sinf (%)": "−91"}
